Assay results as given in the Kinase Knowledgebase extract (Sharma et al. 2016).

Each compound was assayed against PIK3CD (Human) (UniProt O00329) (assay: Assessment of PIK3CD Kinase Activity).
Sequence of PIK3CD (Human) (O00329 whole entry, looked up): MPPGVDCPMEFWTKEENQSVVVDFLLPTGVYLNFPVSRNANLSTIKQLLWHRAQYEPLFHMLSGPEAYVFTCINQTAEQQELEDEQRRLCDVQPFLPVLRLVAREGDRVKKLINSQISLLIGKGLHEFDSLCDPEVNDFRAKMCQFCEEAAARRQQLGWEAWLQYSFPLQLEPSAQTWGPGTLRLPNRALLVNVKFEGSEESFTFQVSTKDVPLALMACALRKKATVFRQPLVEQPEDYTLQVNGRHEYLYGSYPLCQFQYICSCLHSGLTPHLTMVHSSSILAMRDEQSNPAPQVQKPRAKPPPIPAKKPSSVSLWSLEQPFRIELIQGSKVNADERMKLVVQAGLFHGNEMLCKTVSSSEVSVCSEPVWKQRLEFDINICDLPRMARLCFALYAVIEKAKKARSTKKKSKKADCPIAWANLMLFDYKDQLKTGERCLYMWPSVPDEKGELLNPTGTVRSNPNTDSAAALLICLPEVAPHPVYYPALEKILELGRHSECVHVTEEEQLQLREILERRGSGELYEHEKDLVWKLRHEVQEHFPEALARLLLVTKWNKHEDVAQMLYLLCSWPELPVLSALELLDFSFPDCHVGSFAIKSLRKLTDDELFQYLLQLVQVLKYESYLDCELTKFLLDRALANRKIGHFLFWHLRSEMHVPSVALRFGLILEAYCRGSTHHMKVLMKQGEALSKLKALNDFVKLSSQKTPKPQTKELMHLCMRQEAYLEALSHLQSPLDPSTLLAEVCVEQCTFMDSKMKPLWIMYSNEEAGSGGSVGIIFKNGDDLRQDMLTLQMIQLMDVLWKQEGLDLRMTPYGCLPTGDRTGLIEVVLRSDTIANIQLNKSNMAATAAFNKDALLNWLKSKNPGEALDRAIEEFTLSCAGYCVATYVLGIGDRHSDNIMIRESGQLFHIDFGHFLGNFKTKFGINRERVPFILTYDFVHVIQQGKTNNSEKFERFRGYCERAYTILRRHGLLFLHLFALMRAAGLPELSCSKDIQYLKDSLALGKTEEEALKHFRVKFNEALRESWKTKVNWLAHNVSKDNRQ

IC50	Compound
< 50 nM	COc1c(C(C)Nc2ncnc3[nH]cnc23)cc(Cl)c(C)c1-c1ccc(C(=O)N2CCC(O)CC2)c(F)c1 (stereo not given)
< 50 nM	CNC(=O)c1ccc(-c2c(C)c(Cl)cc(C(C)Nc3ncnc4[nH]cnc34)c2OC)cc1F (stereo not given)
50 to 100 nM	COc1c(-c2ccnn2C)cc(Cl)cc1C(C)Nc1ncnc2[nH]cnc12 (stereo not given)
< 50 nM	COc1c(C(C)Nc2ncnc3[nH]cnc23)cc(Cl)c(C)c1-c1ccc(C(=O)N2CCOCC2)c(F)c1 (stereo not given)
< 50 nM	COc1c(C(C)Nc2ncnc3[nH]cnc23)cc(Cl)c(C)c1-c1ccc(C(=O)NC2CCC2)c(F)c1 (stereo not given)
< 50 nM	COc1c(C(C)Nc2ncnc3[nH]cnc23)cc(Cl)c(C)c1C1CC(=O)N(C)C1 (stereo not given)
< 50 nM	COc1c(C(C)Nc2ncnc3[nH]cnc23)cc(Cl)c(C)c1-c1cnn(C2(CC#N)CC(C#N)C2)c1 (stereo not given)
< 50 nM	COc1c(C(C)Nc2ncnc3[nH]cnc23)cc(Cl)c(C)c1-c1cncc(C#N)c1 (stereo not given)
50 to 100 nM	COc1c(-c2ccncc2)cc(Cl)cc1C(C)Nc1ncnc2[nH]cnc12 (stereo not given)
50 to 100 nM	COc1c(-c2cncnc2)cc(Cl)cc1C(C)Nc1ncnc2[nH]cnc12 (stereo not given)
50 to 100 nM	COc1c(-c2ccc(NC(C)=O)cc2)cc(Cl)cc1C(C)Nc1ncnc2[nH]cnc12 (stereo not given)
< 50 nM	COc1c(C(C)Nc2ncnc3[nH]cnc23)cc(Cl)c(C)c1C1CNC(=O)C1 (stereo not given)
< 50 nM	COc1c(C(C)Nc2ncnc3[nH]cnc23)cc(Cl)c(F)c1C1=CCN(S(C)(=O)=O)CC1 (stereo not given)
< 50 nM	CCOc1c(C(C)Nc2ncnc3[nH]cnc23)cc(Cl)c(C#N)c1C1CN(C(C)C)C1 (stereo not given)
100 to 250 nM	COc1ncc(-c2cc(Cl)cc(C(C)Nc3ncnc4[nH]cnc34)c2OC)cn1 (stereo not given)
